TGI and GI50 data for 14 compounds are collected here from PubChem BioAssay (NCI).

Test systems include SW-620 colon; NCI-H522 lung; COLO 205 colon; CAKI-1 renal; MALME-3M melanoma; UO-31 renal; ACHN renal; SN12C renal; TK-10 renal; NCI-H460 lung; IGROV1 ovarian; SF-268 CNS.
Common to all, as to assay: NCI-60 cell line screen, 48 h

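Compound exposure: 48 hours, 5 concentrations, 96-well plates. At the GI50, growth is halved. TGI: concentration producing complete growth inhibition.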 Where only a bound is given, the exact number is not on record here.

For `O=S(=O)(CF)OCCCCOS(=O)(=O)CF`, the TGI with SW-620 colon, with NCI-H522 lung, in the experiment with COLO 205 colon, in the experiment with CAKI-1 renal, in the experiment on MALME-3M melanoma and in the experiment on UO-31 renal was over 100 µM in each case. In addition, the TGI with ACHN renal, with SN12C renal, in the experiment on TK-10 renal, in the experiment with NCI-H460 lung, in the experiment on IGROV1 ovarian and in the experiment with SF-268 CNS was over 100 µM in each case.

`Clc1ccc(N2N=C(c3cccc(Nc4ccncc4)c3)CC2c2ccc(Br)cc2)cc1` (stereo not given): the GI50 in the experiment on SW-620 colon is 1.73 µM; in the experiment with COLO 205 colon, 2.26 µM; with CAKI-1 renal, 1.52 µM; with UO-31 renal, 1.41 µM; in the experiment on ACHN renal, 1.7 µM; with SN12C renal, 1.67 µM. The values for the GI50 in the experiment with NCI-H460 lung and in the experiment on IGROV1 ovarian were 1.85 µM and 1.8 µM, respectively. For the same compound, the TGI came out at 3.51 µM with SW-620 colon; 4.76 µM with COLO 205 colon; 2.9 µM in the experiment on CAKI-1 renal; 2.75 µM in the experiment with UO-31 renal; 3.06 µM in the experiment on ACHN renal; 3.21 µM with SN12C renal. Besides, the TGI worked out at 3.53 µM with NCI-H460 lung and 3.41 µM in the experiment with IGROV1 ovarian.

`Cn1c(=O)[nH]c2c(c1=O)C(=O)CN2`: the TGI with SW-620 colon, with COLO 205 colon, in the experiment with CAKI-1 renal, with MALME-3M melanoma, in the experiment with UO-31 renal and in the experiment on SN12C renal was over 100 µM each time. Also, the TGI in the experiment on TK-10 renal, in the experiment on NCI-H460 lung, in the experiment on IGROV1 ovarian and with SF-268 CNS was over 100 µM each time.

Turning to `N#CCCN(CCC#N)c1ccc(/C=C(/NC(=O)Nc2ccccc2Cl)NC(=O)c2cc([N+](=O)[O-])ccc2Cl)cc1`, the TGI in the experiment on SW-620 colon, in the experiment on NCI-H522 lung, in the experiment with COLO 205 colon, with CAKI-1 renal, in the experiment with MALME-3M melanoma and with UO-31 renal was over 100 µM each time. Besides, the TGI in the experiment on ACHN renal, with SN12C renal, in the experiment with TK-10 renal, with IGROV1 ovarian and in the experiment with SF-268 CNS was over 100 µM in each case.

Take `CCOC(=O)c1ccc(N(CCOS(=O)(=O)c2ccc(C)cc2)CCOS(=O)(=O)c2ccc(C)cc2)cc1`: the TGI with SW-620 colon, with NCI-H522 lung, in the experiment on COLO 205 colon, in the experiment with CAKI-1 renal, in the experiment on MALME-3M melanoma and in the experiment on UO-31 renal was over 100 µM in each case. In addition, the TGI with ACHN renal, in the experiment on TK-10 renal, in the experiment on NCI-H460 lung, with IGROV1 ovarian and with SF-268 CNS was over 100 µM throughout.

Consider `C[Si](C)(C)/C=C/CN1C(=O)CCC1=O`, for which the TGI in the experiment with SW-620 colon, in the experiment on NCI-H522 lung, with COLO 205 colon, in the experiment with MALME-3M melanoma, with UO-31 renal and with ACHN renal was over 100 µM throughout. Further, the TGI with SN12C renal, in the experiment on TK-10 renal, in the experiment with NCI-H460 lung, in the experiment with IGROV1 ovarian and with SF-268 CNS was over 100 µM in each case.

Consider `O=C(NCCN(CCNC(=O)c1cccc(=O)n1O)CCNC(=O)c1cccc(=O)n1O)c1cccc(=O)n1O`, for which the TGI in the experiment on SW-620 colon, in the experiment on NCI-H522 lung, in the experiment on COLO 205 colon, in the experiment on CAKI-1 renal, in the experiment with MALME-3M melanoma and in the experiment on UO-31 renal was over 100 µM in each case. Also, the TGI with ACHN renal, with SN12C renal, with TK-10 renal, in the experiment on NCI-H460 lung, in the experiment on IGROV1 ovarian and in the experiment with SF-268 CNS was over 100 µM throughout.

With `Cc1ccc(CN2CCN(Cc3ccc(C)o3)C(C)C2)o1` (stereo not given), the TGI in the experiment with SW-620 colon, in the experiment with NCI-H522 lung, in the experiment on COLO 205 colon, in the experiment on CAKI-1 renal, with MALME-3M melanoma and in the experiment on UO-31 renal was over 100 µM each time. For the same compound, the TGI in the experiment with ACHN renal, in the experiment on SN12C renal, in the experiment with TK-10 renal, with NCI-H460 lung, in the experiment with IGROV1 ovarian and in the experiment on SF-268 CNS was over 100 µM in each case.

As to `COC(=O)C(=O)C(C(C)=O)C(=O)C(=O)Nc1ccc(C)cc1C` (stereo not given), the TGI in the experiment on SW-620 colon, in the experiment with NCI-H522 lung, in the experiment with COLO 205 colon, with CAKI-1 renal, with UO-31 renal and with ACHN renal was over 100 µM each time. Moreover, the TGI in the experiment with SN12C renal, with TK-10 renal, in the experiment on NCI-H460 lung, in the experiment with IGROV1 ovarian and with SF-268 CNS was over 100 µM throughout.

Consider `COc1ccc(NC(/C(C(=O)C(=O)/C=C(\O)c2ccccc2)=C(\O)c2ccccc2)c2ccc(OC)cc2)cc1` (stereo not given), for which the TGI with NCI-H522 lung is 50.5 µM; in the experiment on COLO 205 colon it was over 100 µM; in the experiment on CAKI-1 renal it was over 100 µM; in the experiment with MALME-3M melanoma, 75.6 µM; in the experiment with UO-31 renal, over 100 µM; in the experiment with ACHN renal, over 100 µM. In addition, the TGI in the experiment on SN12C renal, in the experiment with TK-10 renal, with NCI-H460 lung, in the experiment with IGROV1 ovarian and in the experiment with SF-268 CNS was over 100 µM each time.

In the case of `COc1ccc(N[C@@H]2c3cc4c(cc3C(c3cc(OC)c(O)c(OC)c3)[C@H]3C(=O)OCC32)OCO4)cc1OC` (stereo not given in full), the TGI in the experiment with SW-620 colon is over 100 µM; in the experiment on NCI-H522 lung it was over 25.3 µM; in the experiment on COLO 205 colon, over 36.3 µM; in the experiment on MALME-3M melanoma, over 40.7 µM; in the experiment with UO-31 renal, over 100 µM; in the experiment on SN12C renal it was over 72.9 µM. For the same compound, the figures for the TGI with IGROV1 ovarian and with SF-268 CNS were over 75.7 µM and over 56.7 µM, respectively.

As to `COc1cc(C(=O)OC2CC34CCNC35CC(OC5(OC)C2O)c2cc3c(cc24)OCO3)ccc1O` (stereo not given), the TGI in the experiment on SW-620 colon, in the experiment on NCI-H522 lung, in the experiment on COLO 205 colon, in the experiment on CAKI-1 renal, with MALME-3M melanoma and with ACHN renal was over 100 µM in each case. Besides, the TGI in the experiment on SN12C renal, with TK-10 renal, with NCI-H460 lung, in the experiment on IGROV1 ovarian and with SF-268 CNS was over 100 µM each time.

As to `CC(=O)c1cccc(Nc2nc3ccccc3c3[nH]c4ccccc4c23)c1`, the TGI with SW-620 colon is over 100 µM; in the experiment with NCI-H522 lung it was 8.11 µM; with COLO 205 colon, 5.81 µM; in the experiment on CAKI-1 renal, 23.4 µM; in the experiment on MALME-3M melanoma, 13.2 µM; with UO-31 renal, over 100 µM. For the same compound, the TGI in the experiment on ACHN renal was 40.5 µM; in the experiment with SN12C renal, over 100 µM; with TK-10 renal, 37 µM; in the experiment on NCI-H460 lung, 4.36 µM; in the experiment with IGROV1 ovarian, 22.3 µM; with SF-268 CNS, 17.3 µM.

Take `CCCCCC(/C=C/c1ncccc1OCCCCCC(=O)O)=N\NC1=NCCN1`: the TGI with SW-620 colon, in the experiment on NCI-H522 lung, with COLO 205 colon, in the experiment with CAKI-1 renal, with MALME-3M melanoma and in the experiment with UO-31 renal was over 100 µM in each case. Also, the TGI with ACHN renal, in the experiment with SN12C renal, in the experiment with TK-10 renal, in the experiment with NCI-H460 lung, in the experiment with IGROV1 ovarian and in the experiment with SF-268 CNS was over 100 µM in each case.
